Test results reported in patent publication US20110306638A1, “BENZISOXAZOLE PIPERIDINYL DERIVATIVES, PHARMACEUTICAL COMPOSITIONS COMPRISING THE DERIVATIVES AND THEIR USE” (NHWA PHARMA. CORPORATION, priority 2008, published 2011).
Like-named read-outs stand apart in the source and are kept apart here. Marks after values point to notes of the source that are not given here.

What was measured:
5-HT2A receptor = biological target: T1, 5-HT2A receptor (Homo sapiens, UniProt P28223); test: In-vitro competitive binding to 5-HT2A receptor, [3H]-Ketanserin, transformed HEK293 cells; conditions: for inhibition at 10 µM: read-out: 5-HT2A [3H]-Ketanserin inhibition percentage; for IC50 / Ki: affinity to 5-HT2A receptor, concentration gradient test
T1 construct: expressed in transfected cells; host or cells: HEK293
Method: All test samples were dissolved in DMSO at a concentration of 0.01 mol/L, and then diluted with deionized water to 100 umol/L.
HEK293 cells were transformed with plasmid carriers containing the gene coding for 5-HT2A receptor protein by using calcium phosphate transformation. Stable cell strains which could stably express 5-HT2A receptor protein were obtained from the transformed cells by cultivating in a culture media containing G418, selecting monoclones of the cell and performing radioactive ligand binding assay.
Beckman LS 6500 Scintillation Counter.
HEK-293 cells were infected with recombined viruses containing various genes described above. […] Cells were centrifuged at 1000 rpm for 5 min Culture media was discarded, and cell bodies were collected and stored at −20° C. in a freezer. The cell bodies were resuspended with Tris-HCl reaction buffer during assay.
After incubation at 37° C. for 15 min, the reaction mixture was immediately transferred into ice bath to terminate the reaction; the reaction mixture was quickly filtered through GF/C glass cellulose filter on a Millipore cell sample collector, and was then washed with eluting solution (50 mM Tris-HCl, PH 7.7, 3 ml×3) and dried in a microwave for 8-9 min. The filter was transferred into a 0.5 ml centrifuge tube, and 500 μl lipid soluble scintillation fluid was added. The centrifuge tube was allowed to stand in darkness for more than 30 min. Radioactivity was determined by counting Inhibition percentage of each compound on isotope ligand binding was calculated according to the following equation:
inhibition percentage(I %)=cpm of overall binding tube−cpm of compound/cpm of overall binding tube−cpm of nonspecific binding tube×100%.
Each compound was tested in two duplicate test tubes and two separate tests were performed.

Kunming mice [1] = test: Acetic acid-induced abdominal writhing test in mice; type: in vivo
Method: Kunming mice, SPF KM mice purchased from […] SLAC LABORATORY ANIMAL CO. LTD and kept in normal environment.
The compounds were dissolved in water for injection at a concentration of 4 mg/ml, 2 mg/ml and 1 mg/ml and were given intragastrically to animals.
(§1) Three different doses (10, 20, and 40 mg/kg) were administered to the test groups.
Aspirin was used as a positive control and acetic acid writhing test was used.
30 mice (half male and half female) weighing 18-23 g were divided into five groups, including negative control group, positive control group, low dose group, medium dose group and high dose group:
Mice in test group received test drug (10 mg/kg, 20 mg/kg, 40 mg/kg) via intragastric administration. Negative control group received physiological saline (20 ml/kg) via oral administration. Positive control group received aspirin (200 mg/kg) via oral administration. One hour later, each group received 0.7% acetic acid 10 ml/kg intraperitoneally. Five minutes later, the number of writhes was counted within the subsequent 15 min period; inhibition percentage of writhing response in each test group was calculated by the following equation: […]

Kunming mice [2] = test: Hot-plate test in mice; type: in vivo; conditions: 1 h post dose
Method: Kunming mice, SPF KM mice were purchased from […] SLAC LABORATORY ANIMAL CO. LTD and kept in normal environment.
The compounds were dissolved in water for injection at a concentration of 4 mg/ml, 2 mg/ml and 1 mg/ml and were given subcutaneously to animals.
as §1
Morphine was used as a positive control and hot plate test was used.
30-40 mice (half male and half female) weighed from 18 to 23 gram were used. First, each mouse was placed on a hot plat at 55° C. to determine basic pain threshold for 2-3 times. Those animals with basic pain threshold of 5-30 s were qualified, unqualified mice were not used. 30 qualified mice were divided into five groups, including negative control group, positive control group, low-dose group, medium-dose group and high-dose group:
Mice in test groups received test sample solution (10 mg/kg, 20 mg/kg, 40 mg/kg) via subcutaneous injection in the neck. Positive control group received subcutaneous injection of morphine (2 mg/kg). One hour later, pain threshold values were determined for mice in each group as post-drug pain threshold. Percentage increase in pain threshold was calculated according to the following equation: […]

mice = test: Sedative effects in mice (spontaneous activities); type: in vivo; design: unit not given here; conditions: single dose 20 mg/kg
Method: Spontaneous activities of the mice were recorded by alternating current tube, Sedative effects were tested after single dose (20 mg/kg).

[3] = biological target: opioid receptor subtype μ (Homo sapiens, UniProt P35372); test: Competitive binding to opioid receptor subtype μ, [3H]Diprenorphine; conditions: tested concentration 10^−5 mol/L; read-out: μ inhibition percentage of competitive binding
Method: (§2) The respective test compounds were added to the sample tube (final concentration of 10^−5M), incubated at 37° C. for 30 min and placed in ice bath to terminate the reaction. The reaction mixture was filtered through GF/C (Whatman) glass fiber filter by vacuum filtration on a Millipore sample collector. The filter was washed three times with 50 mM Tris-HCl (pH7.4), each with 4 ml; dried and transferred into a 0.5 ml Eppendorf tube, in which 0.5 ml lipophilic scintillation fluid was added. Radioactivity was detected by a LS6500 scintillation counter. Each concentration had three duplicate test tubes and each separate test was repeated 3 to 4 times.
(§3) Specific binding CMP value for each sample tube=overall binding CPM value for each sample tube−CPM value of non-specific binding tube.
(§4) [Inhibition percentage of competitive binding between the test compound and different opioid receptor subtypes (%)=(100%−specific binding (CPM value)of sample tube/specific binding(CPM value)of solvent group×100%)]
(§5) Average was taken for each test drug from three duplicate tubes; each test was repeated two or more times.

[4] = biological target: opioid receptor subtype δ (Homo sapiens, UniProt P41143); test: Competitive binding to opioid receptor subtype δ, [3H]Diprenorphine; conditions: tested concentration 10^−5 mol/L; read-out: δ inhibition percentage of competitive binding
Method: as §2, §3, §4
Average was taken for each test drug from three duplicate tubes; each test was repeated two or more times. Data were presented as mean±SE and statistical comparison was made by ANOVA.

[5] = biological target: opioid receptor subtype κ (Homo sapiens, UniProt P41145); test: Competitive binding to opioid receptor subtype κ, [3H]Diprenorphine; conditions: tested concentration 10^−5 mol/L; read-out: κ inhibition percentage of competitive binding
Method: as §2, §3, §4, §5

[6] = biological target: T2, 5-HT reuptake by brain synapses (Rattus norvegicus, UniProt P31652); test: [3H]5-HT reuptake test in rat brain synapses; type: biochemical; conditions: for inhibition at 10 µM: final concentration 10 umol/L, rat brain synapses, read-out: 5-HTU [3H] 5-HT reuptake inhibition percentage Mean
T2 construct: forehead cortex was obtained for [^3H]5-HT, [^3H]NA reuptake test; from tissue; host or cells: rat (SD) forebrain cortex synaptosomes
Method: The method was as follows:
Male SD rats were killed by cervical dislocation, heads were immediately cut and brains were obtained and put on ice, related brain tissues were dissected (forehead cortex was obtained for [^3H]5-HT, [^3H]NA reuptake test, corpus striatum was obtained for [^3H]DA reuptake).
After the sample was weighed, 10 folds (V/W) ice cold 0.32 mol/L sucrose solution was added.
According to [a. […] 5-HT was added and after incubation in water bath at 37° C. for 10 min, the reaction mixture was immediately taken out of the water bath and 2 ml ice cold 150 mmol/L Tris-HCl was added to terminate the reaction. The sample was collected on a round glass fiber filter by vacuum filtration and washed three times with 3 ml ice cold Tris-HCl buffer. The filter membrane was removed, dried in a far-infrared oven for 15 min, then transferred into a EP tube, in which 1.5 ml scintillation fluid was added, left overnight and detected by a scintillation counter. The test sample was not added into solvent controlled overall binding tube or non-specific binding tube. 50 μl solvent was added into the overall binding tube, and in [^3H] 5-HT reuptake test, 600 μmol/L cocaine was added into the non-specific binding tube.

[7] = 10 mg/kg intragastric administration
[8] = 20 mg/kg intragastric administration
[9] = 40 mg/kg intragastric administration

| Structure (SMILES) | inhibition at 10 µM (5-HT2A receptor) [%] | Inhibition percentage of writhing response (Kunming mice [1]; [7]) | Inhibition percentage of writhing response (Kunming mice [1]; [8]) | Inhibition percentage of writhing response (Kunming mice [1]; [9]) | Percentage increase in pain threshold (Kunming mice [2]; 10 mg/kg S.c.) | Percentage increase in pain threshold (Kunming mice [2]; 20 mg/kg S.c.) | Percentage increase in pain threshold (Kunming mice [2]; 40 mg/kg S.c.) | Sedative effect (mice) | inhibition at 10 µM [3] [%] | inhibition at 10 µM [4] [%] | inhibition at 10 µM [5] [%] | IC50 (5-HT2A receptor) [nM] | Ki (5-HT2A receptor) [nM] | inhibitory activity on 5-HT2A (in words) (5-HT2A receptor; compared with Aripiprazole) | inhibition at 10 µM (5-HT2A receptor; final concentration 10 umol/L) [%] | inhibitory activity on 5-HT reuptake (in words) ([6]; at 10 μmol/L, compared with Dutoxetine) | inhibition at 10 µM [6] [%] |
| --- | --- | --- | --- | --- | --- | --- | --- | --- | --- | --- | --- | --- | --- | --- | --- | --- | --- |
| Fc1ccc2c(C3CCN(CCCOn4nnc5ccc(Cl)cc54)CC3)noc2c1 [IV-4, 3-(1-(3-(6-chloro-1H-benzo[d][1,2,3]triazol-1-yloxy)propyl)piperidin-4-yl)-6-fluorobenzo[d]isoxazole] | 97.4 | 88.33% | 99.44% | 97.78% | 51.63% | 79.36* % | 89.96* % | 70.8* | 34.3 ± 1.3 | 0 | 37.3 ± 1.7 | – | – | – | – | – | – |
| N#Cc1ccc2cnn(CCCCN3CCC(c4noc5cc(F)ccc45)CC3)c2c1 [II-14, 1-(4-(4-(6-fluorobenzo[d]isoxazol-3-yl)piperidin-1-yl)butyl)-1H-indazole-6-carbonitrile] | – | 77.70* % | 69.03% | 85.66** % | – | – | – | 20 | 41.9 ± 0.5 | 0 | 7 ± 0.6 | 3.09 | 2.06 | potent inhibitory activities | 99.7 | potent inhibitory activities | 88.3 |
| Fc1ccc2c(C3CCN(CCCCn4cnc5ccc(F)cc54)CC3)noc2c1 [III-2, 6-fluoro-3-(1-(4-(6-fluoro-1H-benzo[d]imidazol-1-yl)butyl)piperidin-4-yl)benzo[d]isoxazole] | – | 97.61* % | 100.0** % | 100.0** % | 92.55* % | 172.2* % | 97.22% | 64** | 59.3 ± 0.7 | 0 | 44.1 ± 0.2 | 3.99 | 2.69 | – | 99.1 | – | 86 |
